Entries after “also recorded” stand apart in the source; their conditions may differ.
Tests used:
[1] = test system: mouse platelets; assay: Sialidase-induced β-galactose exposure on platelets, lectin binding by flow cytometry; format: cell-based; details: mouse platelets, 5 mU α2-3,6,8,9-sialidase
[2] = test system: mouse platelets; assay: In vivo survival of biotinylated platelets after injection of sialidase inhibitor; details: mice injected with 100 mM DANA vs PBS
Procedure: These studies then addressed whether inhibition of sialidase activity in vivo has an effect on platelet survival. […] Mice were injected with 100 mM DANA or PBS (phosphate buffered saline) as a control, after in vivo platelet biotinylation.

[3] = test system: platelet GPIbα and GPV receptor surface expression; assay: Recombinant TACE-mediated GPIbα and GPV shedding from platelets; format: cell-based, mouse; details: GPIbα and GPV; GM6001 100 μM on sialidase-treated platelets
[4] = test system: mouse platelets; assay: Mouse platelets stored in 30% plasma and 70% INTERSOL solution at RT for 48 h, flow cytometry; format: cell-based
Procedure: The supernatant, containing platelet rich plasma, buffy coat, and some RBC, was removed and centrifuged at 300×g for 6 min to obtain platelet rich plasma (PRP). […] About 70% of the supernatant (105 μL) was removed from each tube, and replaced with equal volume of […]® solution. […] The volumes in tubes lacking one or both additives were evened out with PBS. The platelet suspensions were stored at RT for 48 h on a shaker and analyzed by flow cytometry.

[5] = test system: mouse platelets; assay: Mouse platelets stored at RT for 48 h with different concentrations of DANA, counted by flow cytometry; format: cell-based; details: 0.1 mM DANA, 48 h at RT
Procedure: Mouse platelets were isolated as described in Example 3, re-suspended in platelet resuspension buffer and split to four aliquots. […] The samples were incubated for 30 min at 37° C., centrifuged and supernatants removed. The platelets re-suspended in plasma. DANA and glucose were restored to their initial concentrations. The platelet suspensions were stored at RT. After 48 h, platelets under each storage condition were counted by flow cytometry.

[6] = test system: human platelets; assay: Human platelets stored in plasma at RT, P-selectin surface expression (CD62P-FITC); format: cell-based; details: stored in plasma with DANA
[7] = test system: mouse platelets; assay: Sialidase (neuraminidase)-induced loss of platelet surface receptors, flow cytometry and immunoblot; format: cell-based; details: mouse platelets, flow cytometry and Western blot
[8] = test system: human platelets; assay: Human platelets stored in 30% plasma and 70% PASa at RT, flow cytometry and pH; format: cell-based; details: 7 days at RT
Procedure: Human platelets were obtained as described in Example 13. The platelet pellet was resuspended in PPP, ⅕ volumes of original PRP, and aliquoted into wells of a 96-well microtiter plate (60 μL per well). PAS (designated as PASa), containing 7.15 mM Na2HPO4, 2.24 mM NaH2PO4, 10 mM sodium citrate, 30 mM sodium acetate, 79.2 mM NaCl, 5.0 mM KCl, and 1.5 mM MgCl2, was added to corresponding wells at 140 μL per well, DANA was added to 0, 0.1, and 0.5 mM from 10 or 100 mM stock in PBS to proper wells. The sample volumes in the wells were evened out with PBS. The plate was then covered with a gas-permeable film and placed on a shaker. Platelet size and density were measured by forward (FSC) and side scatter (SSC) on a FACSCalibur flow cytometer (BD) at Day 7, and pH was checked at Day 9.

[9] = test system: bacteria; assay: Bacterial detection in stored platelet concentrate with SLP reagent, time of color detection (TOCD); format: cell-based; details: for time of color detection (TOCD): 1 mM DANA
Procedure: To increase the formation of planktonic bacteria, thereby improving the sensitivity of the bacterial detection, platelet storage studies were performed in a mixture of PAS (INTERSOL® solution) and plasma (80:20). Many bacterial detection methods are available. We used SLP Reagent Set (297-51501, Wako Chemicals USA), containing silkworm larvae plasma (SLP) and […] (DOPA), reconstituted according to manufacturer's instruction and stored as 100 μL aliquots at -80° C. When a sample is mixed with SLP reagent, peptidoglycan derived from the cell wall of Gram-positive and Gram-negative bacteria in the sample initiates a series of reactions including activation of multiple serine proteases called prophenoloxidase (proPO) cascade. The phenoloxidase (PO) produced in the cascade reactions oxidizes the substrate in the SLP reagent, […] (DOPA), to form melain (dark blue). The bacteria concentration in the test sample is inversely proportional to the onset time of color development: shorter time=higher concentration of bacteria; longer time=lower concentration of bacteria.
One bag of a platelet concentrate was split to two 50-mL Falcon tubes, PGE1 was added. After centrifugation at 900×g for 10 min, 80% of the supernatant (PPP) (relative to the total volume) was removed, and replaced with equal volume of platelet protection solution. The platelet was thoroughly re-suspended. The platelet suspensions were pooled and split to 4 aliquots in 15-mL Falcon tubes. DANA (1 mM) in PBS was added to two tubes while only PBS was added to the other tubes. One pair of samples with and without DANA was stored at 4° C. The second pair was kept at RT (22° C.-24° C.). Aliquots of 1.0 mL were removed on Day 0 and Day 9, and immediately pelleted (5 min, 15,800×g). […]
The pellet containing both platelets and bacteria, recovered from 1-mL aliquots sampled at different time points, was re-suspended in 100 μL of 0.1 M NaOH, and heated for 10 min at 70° C. […] The samples were left on the bench, and color development was monitored. The time of color detection (TOCD) was recorded.

Structure (SMILES): CC(=O)NC1C(O)C=C(C(=O)O)OC1C(O)C(O)CO (centres unmarked) [DANA]
- β-galactose exposure induced by sialidase in presence of inhibitor [1]: completely inhibited; also recorded: inhibits the exposure of β-galactose
- survival of biotinylated platelets in vivo [2]: increases mouse platelet life span in vivo; also recorded: increases the survival
- receptor shedding by rTACE in presence of inhibitor [3]: completely prevented
- platelet events within the platelet gate ([4]; 48 h at RT, DANA 1 mM and/or glucose 10 mM (57% in INTERSOL alone)): over 80%
- state of platelet population by forward and side scatter ([4]; compared with glucose alone): more resting platelet population
- platelets recovered ([5]; 8 mM glucose, vs 0 mM DANA): approximately 5 fold
- size and density of platelets by dot plot analysis [5]: efficiently preserved the size and density of platelets
- exposure of P-selectin [6]: significantly prevented the exposure of P-selectin
- α-granule release [6]: inhibited α-granule release
- loss (shedding) of platelet GPIbα and GPV induced by sialidase/neuraminidase, in presence of inhibitor [7]: completely prevented this loss; also recorded: prevented all GPIbα and GPV shedding; also recorded: inhibits the loss of platelet GPIbα
- platelet microparticles (G2) ([8]; 0.1 mM DANA (41.5% without)): 23.95%
- total acquired events gated as platelets (G1) ([8]; 0.1 mM DANA (55% without)): over 70%
- platelet microparticles (G2) ([8]; 0.5 mM DANA): 13.52%
- total acquired events gated as platelets (G1) ([8]; 0.5 mM DANA): 81.6%
- bacterial growth in RT stored platelet samples ([9]; DANA, compared with 4° C. storage): inhibits bacterial growth as effectively as 4° C.-storage
- time of color detection (TOCD) ([9]; Day 9, stored at 4° C.): ~50 min
- time of color detection (TOCD) ([9]; Day 9, stored at RT, INTERSOL/plasma 80:20 (15 min without DANA)): ~34 min
